The results in this text go back to ChEMBL document CHEMBL3813650, “GSK114: A selective inhibitor for elucidating the biological role of TNNI3K” (Bioorg Med Chem Lett, 2016).

For one data set, the system named is Rattus norvegicus. Kind of data set: Dose normalized AUC in Sprague-Dawley rat at 2 mg/kg, po administered as gastric bolus by LC/MS/MS analysis. It counts as ADME, organism-based. To be noted: in vivo.
For data set [1], the target named is T1, Serine/threonine-protein kinase TNNI3K (Homo sapiens, UniProt Q59H18).
T1 sequence (Q59H18 whole entry): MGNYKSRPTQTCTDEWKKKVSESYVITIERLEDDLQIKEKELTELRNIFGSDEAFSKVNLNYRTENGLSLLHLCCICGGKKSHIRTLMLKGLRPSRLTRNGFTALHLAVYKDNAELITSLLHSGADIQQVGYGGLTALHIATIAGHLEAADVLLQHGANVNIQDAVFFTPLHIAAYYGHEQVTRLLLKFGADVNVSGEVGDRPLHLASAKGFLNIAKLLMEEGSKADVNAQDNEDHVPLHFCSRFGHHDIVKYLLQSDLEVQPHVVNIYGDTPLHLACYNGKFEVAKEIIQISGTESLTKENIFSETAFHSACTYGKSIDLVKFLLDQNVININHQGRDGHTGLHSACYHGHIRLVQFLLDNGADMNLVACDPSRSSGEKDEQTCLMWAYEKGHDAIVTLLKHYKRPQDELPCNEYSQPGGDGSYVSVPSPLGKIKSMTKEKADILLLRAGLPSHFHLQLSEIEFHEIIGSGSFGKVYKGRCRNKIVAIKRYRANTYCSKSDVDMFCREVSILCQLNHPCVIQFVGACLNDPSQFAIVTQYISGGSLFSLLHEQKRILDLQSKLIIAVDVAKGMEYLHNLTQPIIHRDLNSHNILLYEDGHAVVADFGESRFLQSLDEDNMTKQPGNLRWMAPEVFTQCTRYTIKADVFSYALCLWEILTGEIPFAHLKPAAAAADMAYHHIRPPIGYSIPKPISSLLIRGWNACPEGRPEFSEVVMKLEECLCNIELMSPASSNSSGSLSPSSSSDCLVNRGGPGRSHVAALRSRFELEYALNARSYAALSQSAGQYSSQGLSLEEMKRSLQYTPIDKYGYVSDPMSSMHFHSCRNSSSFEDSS
Put plainly: Displacement of 5-({[2-({[3-({4-[(5-hydroxy-2-methylphenyl)amino]-2-pyrimidinyl}amino)phenyl]carbonyl}amino)-ethyl]amino}carbonyl)-2-(6-hydroxy-3-oxo-3H-xanthen-9-yl)benzoic acid from full length human TNNI3K expressed in baculovirus system incubated for 60 mins by fluorescence polarization assay.

For data set [2], the target named is Serine/threonine-protein kinase B-raf (Homo sapiens, UniProt P15056, V600E). Kind of data set: Inhibition of full-length His6-tagged BRAF V600E mutant (2 to 766 residues) (unknown origin) expressed in baculovirus system by B-Raf accelerated MEK ATPase assay.
Serine/threonine-protein kinase B-raf, sequence (P15056 2-766 V600E limits assumed): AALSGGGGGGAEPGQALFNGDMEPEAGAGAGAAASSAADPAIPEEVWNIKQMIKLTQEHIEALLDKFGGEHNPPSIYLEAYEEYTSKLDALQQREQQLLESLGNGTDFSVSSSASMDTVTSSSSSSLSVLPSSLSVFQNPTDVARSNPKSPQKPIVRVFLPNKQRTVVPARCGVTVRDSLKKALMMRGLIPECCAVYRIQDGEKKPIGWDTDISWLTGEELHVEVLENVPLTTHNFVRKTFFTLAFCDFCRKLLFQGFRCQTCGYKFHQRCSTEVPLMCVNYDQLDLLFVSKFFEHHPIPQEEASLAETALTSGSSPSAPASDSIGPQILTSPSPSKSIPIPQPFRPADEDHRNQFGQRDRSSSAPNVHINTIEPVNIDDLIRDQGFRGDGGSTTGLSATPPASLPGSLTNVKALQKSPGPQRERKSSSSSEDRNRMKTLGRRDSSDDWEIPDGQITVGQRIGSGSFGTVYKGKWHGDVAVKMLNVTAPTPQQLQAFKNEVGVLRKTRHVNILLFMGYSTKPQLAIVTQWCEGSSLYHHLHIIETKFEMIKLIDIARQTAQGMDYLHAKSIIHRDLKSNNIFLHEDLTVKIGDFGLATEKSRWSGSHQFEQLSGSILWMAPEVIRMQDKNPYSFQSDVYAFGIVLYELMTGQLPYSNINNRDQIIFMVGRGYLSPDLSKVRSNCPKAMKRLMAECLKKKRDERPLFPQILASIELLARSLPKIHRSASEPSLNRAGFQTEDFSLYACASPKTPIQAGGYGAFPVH
For data set [3], the target named is T1, Serine/threonine-protein kinase TNNI3K. Kind of data set: Inhibition of human myc-tagged TNNI3K autophosphorylation overexpressed in HEKMSR2 cells incubated for 30 mins by time resolved fluorescence assay. The class given is cell-based.
Data set [4] can be described thus: Fraction unbound in Sprague-Dawley rat plasma at 2 mg/kg, po administered as gastric bolus by LC/MS/MS analysis. The class given is ADME, organism-based.
Data set [5] in a line: Half life in Sprague-Dawley rat at 2 mg/kg, po administered as gastric bolus by LC/MS/MS analysis. The class given is ADME, organism-based. Particulars: in vivo.
Data set [6] can be described thus: Cmax in Sprague-Dawley rat at 2 mg/kg, po administered as gastric bolus by LC/MS/MS analysis. It counts as ADME, organism-based. More on the design: dose 2 mg/kg, route oral. Particulars: in vivo.

`CNS(=O)(=O)c1ccc(N(C)C)c(Nc2ncnc3[nH]ccc23)c1`: the AUC/dose in the data set on Rattus norvegicus stood at 0.59 kg·h/L.

For `CNS(=O)(=O)c1ccc(N(C)C)c(Nc2ncnc3ccc(OC)cc23)c1`, the IC50 in data set [1] stood at 0.079 µM; in data set [2] it was 1 µM.

Regarding `CNc1ccc2c(Nc3cc(S(=O)(=O)NC)ccc3N(C)C)ncnc2c1`, the figures for the half-inhibitory concentration (IC50) in data set [1] and in data set [2] were 0.04 µM and 10 µM, respectively.

Take `CNc1ccc2ncnc(Nc3cc(S(=O)(=O)NC)ccc3N(C)C)c2c1`: the concentration for half-maximal inhibition (IC50) turned out to be 0.05 µM in data set [1] and 1 µM in data set [2].

`CNS(=O)(=O)c1ccc(OCC(F)(F)F)c(Nc2ncnc3cc(OC)cc(OC)c23)c1` showed an AUC/dose with Rattus norvegicus of 1.4 kg·h/L. Besides, the figures for the half-inhibitory concentration (IC50) in data set [1], in data set [2] and in data set [3] were less than 0.01 µM, 0.05 µM and 0.013 µM, respectively.

Take `CNS(=O)(=O)c1ccc(OCC(F)(F)F)c(Nc2ncnc3cc(OCCCN4CCOCC4)ccc23)c1`: the AUC/dose in the data set on Rattus norvegicus turned out to be 0 kg·h/L. Also, the IC50 in data set [1] was 0.013 µM; in data set [2], 1.3 µM; in data set [3], 0.079 µM.

`CNS(=O)(=O)c1ccc(N(C)C)c(Nc2ncnc3ccn(C)c23)c1` returned an AUC/dose with Rattus norvegicus of 0.02 kg·h/L. Also, the IC50 in data set [1] came out at 0.016 µM; in data set [2] it was 0.13 µM; in data set [3], 0.05 µM.

For `CNS(=O)(=O)c1ccc(OCC(F)(F)F)c(Nc2ncnc3cc(OC)c(OC)c(OC)c23)c1`, the AUC/dose with Rattus norvegicus came to 0.24 kg·h/L. Besides, the values for the IC50 in data set [1], in data set [2] and in data set [3] were less than 0.01 µM, 0.079 µM and 0.063 µM, respectively.

On to `CNS(=O)(=O)c1ccc(N(C)C)c(Nc2ncnc3ccc(N)cc23)c1`, for which the half-inhibitory concentration (IC50) in data set [1] was 0.032 µM; in data set [2], 0.63 µM.

On to `CNS(=O)(=O)c1ccc(N(C)C)c(Nc2ncnc3ccccc23)c1`, for which the IC50 was determined as 0.2 µM in data set [1] and 0.25 µM in data set [2].

Consider `CNS(=O)(=O)c1ccc(OCC(F)(F)F)c(Nc2ncnc3cc(OCCCOC)ccc23)c1`, for which the AUC/dose in the data set on Rattus norvegicus was 0.07 kg·h/L. For the same compound, the concentration for half-maximal inhibition (IC50) in data set [1] was 0.025 µM; in data set [2] it was 0.16 µM; in data set [3], 0.32 µM.

Turning to `CNS(=O)(=O)c1ccc(N(C)C)c(Nc2ncnc3ccsc23)c1`, the IC50 in data set [1] is 0.2 µM; in data set [2], 1 µM.

For the compound `CNS(=O)(=O)c1ccc(OCC(F)(F)F)c(Nc2ncnc3cc(OC)c(OC)cc23)c1`, in the data set with Rattus norvegicus, the AUC/dose is 1.9 kg·h/L. In addition, the figures for the concentration for half-maximal inhibition (IC50) in data set [1], in data set [2] and in data set [3] were 0.025 µM, 0.13 µM and 0.16 µM, respectively.

For the compound `CNS(=O)(=O)c1ccc(OCC(F)(F)F)c(Nc2ncnc3cc(OC(C)C)c(OC)cc23)c1`, the IC50 in data set [1] came out at 0.13 µM; in data set [2] it was 32 µM.

Consider `CNS(=O)(=O)c1ccc(N(C)C)c(Nc2ncnc3cc(N)ccc23)c1`, for which the IC50 amounted to 0.063 µM in data set [1] and 4 µM in data set [2].

Turning to `CNS(=O)(=O)c1ccc(N2CCOCC2)c(Nc2ncnc3[nH]cc(Cl)c23)c1`, the IC50 was less than 0.01 µM in data set [1] and 0.0006 µM in data set [2].

Consider `CNS(=O)(=O)c1ccc(N(C)C)c(Nc2ncnc3cc(OC)cc(OC)c23)c1`, for which the AUC/dose in the data set on Rattus norvegicus worked out at 0.04 kg·h/L. Moreover, the concentration for half-maximal inhibition (IC50) in data set [1] was less than 0.01 µM; in data set [2] it was 0.079 µM; in data set [3], 0.01 µM.

On to `CNS(=O)(=O)c1ccc(N(C)C)c(Nc2ncnc3cc(OCCCOC)ccc23)c1`, for which the AUC/dose in the data set on Rattus norvegicus was determined as 0.03 kg·h/L. The half-maximal inhibitory concentration (IC50) in data set [1] was less than 0.01 µM; in data set [2], 0.8 µM; in data set [3], 0.025 µM.

As to `CNS(=O)(=O)c1ccc(N(C)C)c(Nc2ncnc3cc(OCCCN4CCOCC4)ccc23)c1`, the AUC/dose with Rattus norvegicus amounted to 0.02 kg·h/L. The half-maximal inhibitory concentration (IC50) in data set [1] is less than 0.01 µM; in data set [2], 2.5 µM; in data set [3], 0.025 µM.

In the data set on Rattus norvegicus, `CCOc1cc2ncnc(Nc3cc(S(=O)(=O)NC)ccc3OCC(F)(F)F)c2cc1OC` yielded an AUC/dose of 1.7 kg·h/L. The values for the IC50 in data set [1], in data set [2] and in data set [3] were 0.013 µM, 0.1 µM and 0.05 µM, respectively.

The compound `CNS(=O)(=O)c1ccc(N(C)C)c(Nc2ncnc3cc(OC)c(OC)cc23)c1` came in with a fraction unbound in data set [4] of 0.202. The half-life in data set [5] is 3.6 h. The same compound showed an AUC/dose with Rattus norvegicus of 0.18 kg·h/L. Moreover, the 50% inhibitory concentration (IC50) came to 0.025 µM in data set [1], 1 µM in data set [2] and 0.1 µM in data set [3]. Besides, the Cmax in data set [6] came to 0.13 µg/mL.

Regarding `CNS(=O)(=O)c1ccc(N(C)C)c(Nc2ncnc3cc[nH]c23)c1`, the AUC/dose in the data set on Rattus norvegicus turned out to be 0.01 kg·h/L. Besides, the IC50 in data set [1] turned out to be 0.025 µM; in data set [2], 0.25 µM; in data set [3], 0.5 µM.
